Measured values published in EPA's ToxValDB 9.5 (doi:10.2903/j.efsa.2008.183r).
Converted amounts (≈) assume the structure as drawn.

How the values were obtained:
[1] = tested on: Anas platyrhynchos; details: short-term; oral; feed; mortality
[2] = tested on: Colinus virginianus; details: acute, oral, mortality; for LC50: diet
[3] = tested on: Coturnix japonica; details: reproduction developmental; reproduction
[4] = tested on: Rattus norvegicus; details: inhalation
[5] = tested on: Oncorhynchus mykiss; details: acute; duration: 96 hours; mortality
[6] = chronic, duration: 2 years, no effects
[7] = reproduction developmental, mortality
[8] = subchronic, duration: 90 days, no effects

With `[PH]=[Zn].[PH]=[Zn].[Zn]` [Zinc phosphide (Zn3P2)] the LC50 [1] was 2880 mg/kg, the LC50 [2] was 469 mg/kg and the LD50 [2] was less than 35 mg/kg-day. The NOEC [3] was less than 3.5 mg/kg-day.
`[Ca+2].[Ca+2].[Ca+2].[P-3].[P-3]` [Tricalcium diphosphide] showed an LC50 [1] of 2040 mg/kg, an LC50 [2] of 330 mg/kg and an LD50 [2] of less than 24.7 mg/kg-day. The NOAEL [4, 6] was 1.1 mg/kg-day, the NOAEL [4, 7] was 1.9 mg/kg-day and the NOAEL [4, 8] was 1.1 mg/kg-day.
Work on `P` [Phosphine] yielded an LC50 [1] of 762 mg/kg, an LC50 [5] of 4.68 ng/mL (≈ 0.138 µM) and an LC50 [2] of 124 mg/kg. It also gave an LD50 [2] of no more than 9.2 mg/kg-day, an NOAEL [4, 6] of 1.1 mg/kg-day and an NOAEL [4, 7] of 1.9 mg/kg-day. For the same compound, the NOAEL [4, 8] was 1.1 mg/kg-day.
